The target in the test is T1, F508del (Homo sapiens, UniProt P13569, DEL508-508).
T1 construct: expressed in transfected cells
The test is described as follows: Protocol 1: membrane potential optical assay (FLIPR III, voltage sensing dye), identification of potentiator compounds. It is filed as cell-based. Particulars: Table 3, compounds of Table 1. A digest of the protocol: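 Mouse NIH 3T3 fibroblasts stably expressing F508del, temperature-corrected at 27 °C for 24 h, pretreated with compound, then loaded with voltage-sensing redistribution dye. Forskolin was added in a single step with a chloride gradient (chloride-free gluconate bath; Bath Solution #1 HEPES pH 7.4). Membrane-potential fluorescence read on FLIPR III.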

Our source for the EC30 values is patent US10758534B2 (Vertex Pharmaceuticals Incorporated, priority 2014, dated 2020).

T1 sequence (P13569 with tags, fused parts or gaps DEL508-508): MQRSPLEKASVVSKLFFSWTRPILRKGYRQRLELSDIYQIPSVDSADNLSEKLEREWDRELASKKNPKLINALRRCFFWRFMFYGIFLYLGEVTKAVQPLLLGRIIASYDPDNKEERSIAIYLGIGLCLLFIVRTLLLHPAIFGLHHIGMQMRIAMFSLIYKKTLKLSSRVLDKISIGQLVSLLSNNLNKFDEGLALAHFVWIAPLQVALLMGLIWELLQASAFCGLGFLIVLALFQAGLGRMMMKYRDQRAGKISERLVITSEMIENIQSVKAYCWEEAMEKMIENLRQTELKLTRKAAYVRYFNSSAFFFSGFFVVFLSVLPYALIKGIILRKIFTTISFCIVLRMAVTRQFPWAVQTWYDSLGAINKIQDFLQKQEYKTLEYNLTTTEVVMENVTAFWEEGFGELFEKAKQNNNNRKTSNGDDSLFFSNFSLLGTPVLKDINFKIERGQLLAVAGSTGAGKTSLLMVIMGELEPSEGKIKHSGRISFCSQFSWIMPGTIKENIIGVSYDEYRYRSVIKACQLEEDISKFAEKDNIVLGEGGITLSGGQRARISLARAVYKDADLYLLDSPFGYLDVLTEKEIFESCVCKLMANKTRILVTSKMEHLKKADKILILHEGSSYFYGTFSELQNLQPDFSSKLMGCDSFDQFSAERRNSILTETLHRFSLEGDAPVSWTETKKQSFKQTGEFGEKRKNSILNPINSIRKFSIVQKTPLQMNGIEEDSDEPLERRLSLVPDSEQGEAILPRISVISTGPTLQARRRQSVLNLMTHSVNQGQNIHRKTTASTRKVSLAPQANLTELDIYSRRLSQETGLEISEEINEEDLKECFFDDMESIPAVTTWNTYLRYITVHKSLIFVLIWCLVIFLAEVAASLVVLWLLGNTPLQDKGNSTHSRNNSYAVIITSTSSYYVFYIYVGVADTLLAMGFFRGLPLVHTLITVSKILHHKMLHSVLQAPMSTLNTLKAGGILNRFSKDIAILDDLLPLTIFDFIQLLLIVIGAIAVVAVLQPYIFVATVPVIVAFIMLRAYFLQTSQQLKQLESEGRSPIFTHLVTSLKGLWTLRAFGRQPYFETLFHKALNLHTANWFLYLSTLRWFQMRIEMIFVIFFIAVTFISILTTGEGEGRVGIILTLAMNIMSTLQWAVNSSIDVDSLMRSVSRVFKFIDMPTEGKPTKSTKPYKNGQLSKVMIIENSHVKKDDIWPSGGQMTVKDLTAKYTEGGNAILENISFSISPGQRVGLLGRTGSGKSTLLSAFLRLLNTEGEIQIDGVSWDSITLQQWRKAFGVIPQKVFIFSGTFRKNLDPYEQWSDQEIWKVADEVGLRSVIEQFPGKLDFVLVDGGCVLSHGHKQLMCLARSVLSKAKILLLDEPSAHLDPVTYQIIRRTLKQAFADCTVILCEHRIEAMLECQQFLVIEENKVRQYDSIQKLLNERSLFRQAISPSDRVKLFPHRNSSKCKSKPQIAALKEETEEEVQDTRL

On to `C[C@@H]1CN(c2nc(C3=CCCN(S(=O)(=O)N4CCCCC4)C3)ccc2C(=O)NS(=O)(=O)c2cccc(N)n2)C(C)(C)C1` [Compound 1942, N-[(6-amino-2-pyridyl)sulfonyl]-6-[1-(1-piperidylsulfonyl)-3,6-dihydro-2H-pyridin-5-yl]-2-[(4S)-2,2,4-trimethylpyrrolidin-1-yl]pyridine-3-carboxamide], for which the EC30 result was “++ (“++” means between 3 uM and 10 uM)”.
In the case of `Cc1cc(C)c(Oc2nc(-c3ccc(OCC4CC4)cc3)ccc2C(=O)NS(=O)(=O)c2ccc[nH]c2=O)c(C)c1` [Compound 1007, 6-[4-(cyclopropylmethoxy)phenyl]-N-[(2-oxo-1H-pyridin-3-yl)sulfonyl]-2-(2,4,6-trimethylphenoxy)pyridine-3-carboxamide] it was “+++ (“+++” means <3 uM)”.
In the case of `CC(C)COc1cc(F)cc(-c2ccc(C(=O)NS(=O)(=O)c3cccc(N)n3)c(OC3CCOCC3)n2)c1` [Compound 1324, N-[(6-amino-2-pyridyl)sulfonyl]-6-(3-fluoro-5-isobutoxy-phenyl)-2-tetrahydropyran-4-yloxy-pyridine-3-carboxamide] it was “+++ (“+++” means <3 uM)”; in that of `CC(C)C[C@@H](C)Nc1ccc(-c2ccc(C(=O)NS(=O)(=O)c3cccc(N)n3)c(N3[C@H](C)CC[C@@H]3C)n2)cn1` [Compound 1527, N-[(6-amino-2-pyridyl)sulfonyl]-6-[6-[[(1R)-1,3-dimethylbutyl]amino]-3-pyridyl]-2-[(2S,5R)-2,5-dimethylpyrrolidin-1-yl]pyridine-3-carboxamide], “+++ (“+++” means <3 uM)”; in that of `CC(C)CC/C=C/c1cc(C(=O)NS(=O)(=O)c2cccc(N)n2)c(N2C[C@@H](C)CC2(C)C)nc1C(C)(C)C` [Compound 1682, N-[(6-amino-2-pyridyl)sulfonyl]-6-tert-butyl-5-[(E)-5-methylhex-1-enyl]-2-[(4S)-2,2,4-trimethylpyrrolidin-1-yl]pyridine-3-carboxamide], “+++ (“+++” means <3 uM)”.
In the case of `Cc1cc(C)c(CN2C(C(=O)NS(=O)(=O)c3cccc(N)n3)c3ccccc3C2(C)C)c(C)c1` (stereo not drawn) [Compound 1101, N-[(6-amino-2-pyridyl)sulfonyl]-3,3-dimethyl-2-[(2,4,6-trimethylphenyl)methyl]isoindoline-1-carboxamide], the EC30 entry is on record as “+++ (“+++” means <3 uM)”.
In the case of `Cc1cc(C)c(Oc2nc(-c3cnn(CC(C)C)c3)ccc2C(=O)NS(=O)(=O)c2nccnc2N)c(C)c1` [Compound 1103, N-(3-aminopyrazin-2-yl)sulfonyl-6-(1-isobutylpyrazol-4-yl)-2-(2,4,6-trimethylphenoxy)pyridine-3-carboxamide] it was “+++ (“+++” means <3 uM)”.
Consider `Cc1cc(C(=O)NS(=O)(=O)c2cccc(N)n2)c(N2CC(C)CC2(C)C)nc1-c1cc(F)cc(OCC(C)C)c1` (stereo not drawn) [Compound 1269, N-[(6-amino-2-pyridyl)sulfonyl]-6-(3-fluoro-5-isobutoxy-phenyl)-5-methyl-2-(2,2,4-trimethylpyrrolidin-1-yl)pyridine-3-carboxamide], for which the EC30 result is reported as “+++ (“+++” means <3 uM)”.
As for `CC(C)Cc1ccnn1-c1ccc(C(=O)NS(=O)(=O)c2cccc(N)n2)c(N2C[C@@H](C)CC2(C)C)n1` [Compound 1431, N-[(6-amino-2-pyridyl)sulfonyl]-6-(5-isobutylpyrazol-1-yl)-2-[(4S)-2,2,4-trimethylpyrrolidin-1-yl]pyridine-3-carboxamide], the EC30 result is recorded as “+++ (“+++” means <3 uM)”.
On to `Cc1cc(C)c(Oc2nc(-c3ccccn3)ccc2C(=O)NS(=O)(=O)c2cc[nH]n2)c(C)c1` [Compound 1353, N-(1H-pyrazol-3-ylsulfonyl)-6-(2-pyridyl)-2-(2,4,6-trimethylphenoxy)pyridine-3-carboxamide], for which the EC30 entry is recorded as “+ (“+” means greater than 10 uM)”.
As to `CCC(CC)Nc1ccc(-c2ccc(C(=O)NS(=O)(=O)c3cccc(N)n3)c(N3[C@H](C)CC[C@@H]3C)n2)cn1` [Compound 1397, N-[(6-amino-2-pyridyl)sulfonyl]-2-[(2R,5S)-2,5-dimethylpyrrolidin-1-yl]-6-[6-(1-ethylpropylamino)-3-pyridyl]pyridine-3-carboxamide], the EC30 result is listed as “+++ (“+++” means <3 uM)”.
In the case of `CCCc1ccc(S(=O)(=O)NC(=O)C2(C)c3cccc(OCC)c3CN2Cc2c(C)cc(C)cc2C)cc1N` (stereo not drawn) [Compound 1367, N-(3-amino-4-propyl-phenyl)sulfonyl-4-ethoxy-1-methyl-2-[(2,4,6-trimethylphenyl)methyl]isoindoline-1-carboxamide] it was “+++ (“+++” means <3 uM)”; in that of `CCOC1CCN(c2nc(-c3cc(F)cc(OCC(C)C)c3)ccc2C(=O)NS(=O)(=O)c2ccn[nH]2)CC1` [Compound 1155, 2-(4-ethoxy-1-piperidyl)-6-(3-fluoro-5-isobutoxy-phenyl)-N-(1H-pyrazol-5-ylsulfonyl)pyridine-3-carboxamide], “++ (“++” means between 3 uM and 10 uM)”.
As to `Cc1nc(OC(C)C)ccc1-c1ccc(C(=O)NS(=O)(=O)c2cccc(N)n2)c(N2[C@H](C)CC[C@@H]2C)n1` [Compound 1623, N-[(6-amino-2-pyridyl)sulfonyl]-2-[(2R,5S)-2,5-dimethylpyrrolidin-1-yl]-6-(6-isopropoxy-2-methyl-3-pyridyl)pyridine-3-carboxamide], the EC30 result is reported as “+++ (“+++” means <3 uM)”.
In the case of `CC(C)COc1cc(F)cc(-c2ccc(C(=O)NS(=O)(=O)c3ccn[nH]3)c(N3CCC4(CCC4)CC3)n2)c1` [Compound 944, 2-(7-azaspiro[3.5]nonan-7-yl)-6-(3-fluoro-5-isobutoxy-phenyl)-N-(1H-pyrazol-5-ylsulfonyl)pyridine-3-carboxamide] it was “+++ (“+++” means <3 uM)”; in that of `COc1ccc(-c2cnc(N3CC(C)CC3(C)C)c(C(=O)NS(=O)(=O)c3cccc(N)n3)c2)cc1` (stereo not drawn) [Compound 1792, N-[(6-amino-2-pyridyl)sulfonyl]-5-(4-methoxyphenyl)-2-(2,2,4-trimethylpyrrolidin-1-yl)pyridine-3-carboxamide], “+++ (“+++” means <3 uM)”.
Take `Cc1cc(-c2ccc(C(=O)NS(=O)(=O)c3cccc(N)n3)c(N3C[C@@H](C)CC3(C)C)n2)cnc1OCCOC(C)C` [Compound 1973, N-[(6-amino-2-pyridyl)sulfonyl]-6-[6-(2-isopropoxyethoxy)-5-methyl-3-pyridyl]-2-[(4S)-2,2,4-trimethylpyrrolidin-1-yl]pyridine-3-carboxamide]: the EC30 result is “+++ (“+++” means <3 uM)”.
On to `CC(C)COc1cc(F)cc(-c2ccc(C(=O)NS(=O)(=O)c3cccc(N)n3)c(N3CCC3(C)C)n2)c1` [Compound 1928, N-[(6-amino-2-pyridyl)sulfonyl]-2-(2,2-dimethylazetidin-1-yl)-6-(3-fluoro-5-isobutoxy-phenyl)pyridine-3-carboxamide], for which the EC30 result is “++ (“++” means between 3 uM and 10 uM)”.
As for `CC(C)COc1cc(F)cc(-c2ccc(C(=O)NS(=O)(=O)c3cccc(N)n3)c(N3CCCC34CCCC4)n2)c1` [Compound 926, N-[(6-amino-2-pyridyl)sulfonyl]-2-(9-azaspiro[4.4]nonan-9-yl)-6-(3-fluoro-5-isobutoxy-phenyl)pyridine-3-carboxamide], the EC30 result is “+++ (“+++” means <3 uM)”.
As to `CC(C)Oc1ccc(-c2ccc(C(=O)NS(=O)(=O)c3cccc(N)n3)c(N3CCCC34CCC4)n2)cn1` [Compound 987, N-[(6-amino-2-pyridyl)sulfonyl]-2-(8-azaspiro[3.4]octan-8-yl)-6-(6-isopropoxy-3-pyridyl)pyridine-3-carboxamide], the EC30 result is “+++ (“+++” means <3 uM)”.
Take `CC(C)COc1cc(F)cc(-c2ccc(C(=O)NS(=O)(=O)c3cccc(N)n3)c(C3CC(C)(C)CC3(C)C)n2)c1` (stereo not drawn) [Compound 1552]: the EC30 result was “+++ (“+++” means <3 uM)”.
In the case of `C[C@@H]1CN(c2ncc(Cl)cc2C(=O)NS(=O)(=O)c2cccc(N)n2)C(C)(C)C1` [Compound 1603, N-[(6-amino-2-pyridyl)sulfonyl]-5-chloro-2-[(4S)-2,2,4-trimethylpyrrolidin-1-yl]pyridine-3-carboxamide] it was “++ (“++” means between 3 uM and 10 uM)”; in that of `COc1ncc(-c2ccc(C(=O)NS(=O)(=O)c3cccc(N)n3)c(Oc3c(C)cc(C)cc3C)n2)cc1Cl` [Compound 1332, N-[(6-amino-2-pyridyl)sulfonyl]-6-(5-chloro-6-methoxy-3-pyridyl)-2-(2,4,6-trimethylphenoxy)pyridine-3-carboxamide], “+++ (“+++” means <3 uM)”.
In the case of `Cc1cc(C)c(Oc2nc(-c3cccc(F)c3F)ccc2C(=O)NS(=O)(=O)c2cccc(N)n2)c(C)c1` [Compound 1244, N-[(6-amino-2-pyridyl)sulfonyl]-6-(2,3-difluorophenyl)-2-(2,4,6-trimethylphenoxy)pyridine-3-carboxamide] it was “+++ (“+++” means <3 uM)”; in that of `CC(C)Cc1ccc(C(=O)NS(=O)(=O)c2cccc(N)n2)c(N2C[C@@H](C)CC2(C)C)n1` [Compound 1599, N-[(6-amino-2-pyridyl)sulfonyl]-6-isobutyl-2-[(4S)-2,2,4-trimethylpyrrolidin-1-yl]pyridine-3-carboxamide], “+++ (“+++” means <3 uM)”; in that of `COc1ccc(-c2ccc(C(=O)NS(=O)(=O)c3cccc(N)n3)c(Oc3c(C)cc(C)cc3C)n2)cc1O` [Compound 1251, N-[(6-amino-2-pyridyl)sulfonyl]-6-(3-hydroxy-4-methoxy-phenyl)-2-(2,4,6-trimethylphenoxy)pyridine-3-carboxamide], “++ (“++” means between 3 uM and 10 uM)”.
Consider `C[C@@H]1CN(c2nc(C(C)(C)C)c(/C=C/C3CC3)cc2C(=O)NS(=O)(=O)c2cccc(N)n2)C(C)(C)C1` [Compound 1665, N-[(6-amino-2-pyridyl)sulfonyl]-6-tert-butyl-5-[(E)-2-cyclopropylvinyl]-2-[(4S)-2,2,4-trimethylpyrrolidin-1-yl]pyridine-3-carboxamide], for which the EC30 result was “+++ (“+++” means <3 uM)”.
